According to patent publication US20200316084A1, “METHODS TO TARGET TRANSCRIPTIONAL CONTROL AT SUPER-ENHANCER REGIONS” (TOLERO PHARMACEUTICALS, INC., priority 2014, published 2020):

Tests used:
[1] = Body weight of MV4-11 xenograft mice; format: in vivo, athymic Nu/Nu mice; conditions: throughout the study; 25 mg/kg JQ-1, 2.5 mg/kg alvocidib or both
Excerpt: (§1) The AML cell line, MV4-11 is MLL fusion and FLT3-ITD positive. The MLL fusion makes this cell line particularly dependent upon super-enhancer function for driving oncogenesis. MV4-11 cells were implanted subcutaneously in athymic Nu/Nu mice and allowed to establish until tumors reached 100-200 mm^3. JQ-1, a BET protein inhibitor, and alvocidib, a Cdk inhibitor, were used alone and in combination in order to determine the effect of the drug(s) on tumor volume. Animals were stratified into 4 groups and administered one of four treatments: vehicle, 25 mg/kg JQ-1, 2.5 mg/kg alvocidib, or a combination of the two drugs at these doses. The drugs were administered intraperitoneally, once daily for 5 days, for a total of 3 weeks. Tumor volume was measured twice weekly by caliper measurement. […] Weight gain in vehicle and individual drug-treated mice could be attributed to tumor growth. Weight gain in the mice given the combination treatment could be attributed to the overall health and food intake of the mice.

c-MYC = c-MYC expression by RT-qPCR in MV4-11 cells; format: cell-based; conditions: 2 hours, various concentrations
Description: The c-MYC gene is well known to be regulated by the super-enhancer complex in AML cells. JQ-1, a BET protein inhibitor, and alvocidib, a Cdk inhibitor, were used alone and in combination in order to determine the effect of the drug(s) on c-MYC expression. MV4-11 cells were treated with various concentrations of alvocidib and/or JQ-1 for 2 hours. DMSO-treated controls were also included. Treatment was stopped by lysing the cells and isolating RNA for RT-qPCR analysis. The expression of c-MYC was determined and normalized to the housekeeping gene, HPRT1 and to the DMSO-treated control.

MV4-11 = assay: Cell viability by Cell Titer GLO, MV4-11; format: cell-based; conditions: then 48 h inhibitor
Description: (§2) MOLM13 and MV4-11 are MLL fusion and FLT3-ITD positive, AML cells lines. Both cell lines were treated with 20 nM of alvocidib, a Cdk inhibitor, for 48 hours or DMSO control, followed by the addition of JQ-1, an inhibitor of BET proteins, at various concentrations (10 μM-0.0003 μM) or by the addition of panobinostat, an inhibitor of HDAC, at various concentrations (10 μM-0.0003 μM) for 48 additional hours. At completion, cell viability was measured by Cell Titer GLO reagent. IC50 values were determined for JQ-1 and panobinostat with and without the low dose of alvocidib. Addition of 20 nM alvocidib increased the potency of JQ-1, as shown by an IC50 value of 2-fold lower.

MOLM13 = assay: Cell viability by Cell Titer GLO, MOLM13; format: cell-based; conditions: for IC50: MOLM13, then 48 h inhibitor
Description: as §2

MV4-11 cells = assay: MV4-11 subcutaneous xenograft, tumor volume by caliper; format: in vivo, athymic Nu/Nu mice; conditions: for effect on tumor volume: 25 mg/kg JQ-1, 2.5 mg/kg alvocidib or both, intraperitoneally once daily for 5 days, total of 3 weeks
Excerpt: as §1

MCL-1 [2] = assay: MCL-1 mRNA expression time course in MV4-11 cells, RT-qPCR; format: cell-based; conditions: MV4-11, 100 nM
Description: MV4-11 cells were seeded and treated with alvocidib at a concentration of 100 nM. […] Cells were harvested and detection of mRNA was carried out using RT-qPCR analysis in the manner described in previous examples. Expression of MCL-1 was compared to expression of controls and untreated cells. […] There appears to be no inhibition on expression by the 3 hour time point.

CDK9 and Hexim1 = CDK9 and Hexim1 (Homo sapiens, UniProt P50750); assay: CDK9/Hexim1 association, immunoprecipitation and western blotting in MV4-11 cells; format: cell-based
Chain of CDK9 and Hexim1 (P50750 whole entry): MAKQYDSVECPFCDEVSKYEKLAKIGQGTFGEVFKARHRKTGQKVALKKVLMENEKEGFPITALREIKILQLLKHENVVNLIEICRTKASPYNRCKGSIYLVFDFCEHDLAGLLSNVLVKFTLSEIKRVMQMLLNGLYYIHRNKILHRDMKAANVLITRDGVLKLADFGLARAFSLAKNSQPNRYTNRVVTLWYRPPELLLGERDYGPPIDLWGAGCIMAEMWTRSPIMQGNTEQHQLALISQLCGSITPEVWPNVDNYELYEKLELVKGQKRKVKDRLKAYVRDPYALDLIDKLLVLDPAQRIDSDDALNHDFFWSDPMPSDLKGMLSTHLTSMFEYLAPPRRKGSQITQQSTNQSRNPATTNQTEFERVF
Chain of CDK9 and Hexim1 (O60563 whole entry partner): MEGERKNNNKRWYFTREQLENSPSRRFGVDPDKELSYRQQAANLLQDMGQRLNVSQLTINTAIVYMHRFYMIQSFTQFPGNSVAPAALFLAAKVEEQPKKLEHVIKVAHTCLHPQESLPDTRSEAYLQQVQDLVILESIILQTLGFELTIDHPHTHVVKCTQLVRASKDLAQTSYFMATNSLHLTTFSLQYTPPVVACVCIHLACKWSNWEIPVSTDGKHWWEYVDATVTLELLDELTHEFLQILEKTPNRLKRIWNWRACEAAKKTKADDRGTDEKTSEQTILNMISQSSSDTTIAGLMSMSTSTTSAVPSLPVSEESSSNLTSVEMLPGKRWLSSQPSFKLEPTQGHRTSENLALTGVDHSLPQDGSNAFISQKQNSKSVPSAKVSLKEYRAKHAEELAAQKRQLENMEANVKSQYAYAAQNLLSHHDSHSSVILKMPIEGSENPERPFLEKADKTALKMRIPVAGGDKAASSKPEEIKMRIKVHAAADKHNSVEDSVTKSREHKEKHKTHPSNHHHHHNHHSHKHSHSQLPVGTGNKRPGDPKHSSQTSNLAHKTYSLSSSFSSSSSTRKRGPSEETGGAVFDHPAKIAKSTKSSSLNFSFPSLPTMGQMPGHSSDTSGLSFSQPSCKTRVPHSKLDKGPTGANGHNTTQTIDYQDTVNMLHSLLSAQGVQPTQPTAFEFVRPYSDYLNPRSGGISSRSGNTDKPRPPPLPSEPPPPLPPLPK
Description: MV4-11 cells were seeded and treated with alvocidib in identical concentrations and doses. Cells were collected at given times and subjected to high salt lysis buffer and immunoprecipitation followed by western blotting. […] FIGS. 11A and 11B provide results of a dose escalation study performed according to the above general procedure. […] Representative western blot is provided in FIG. 11A with quantification of the western blot in FIG. 11B.
Representative western blot is provided in FIG. 12A with quantification of the western blot in FIG. 12B.

[3] = tested on: super enhancer complex regulated genes; assay: Super enhancer complex regulated genes, mRNA expression in A549 cells; format: cell-based, human
Description: A549 cells are adenocarcinomic human alveolar basal epithelial cells used as a type II pulmonary epithelial model (solid tumor). These cells were seeded and treated with alvocidib in identical concentrations and doses. Treatment was stopped by lysing the cells and isolating RNA for RT-qPCR analysis. […] The expression of mRNA was determined and normalized to β-actin and the control.

MCL-1 [4] = assay: MCL-1 mRNA expression in A549 cells, alvocidib with JQ-1, RT-qPCR; format: cell-based, human; conditions: JQ-1 0 nM-50 nM 1 hour, then alvocidib 0 nM-100 nM 2 hours
Description: A549 cells were seeded and treated with alvocidib at concentrations ranging from 0 nM-100 nM in combination with JQ-1 at concentrations ranging from 0 nM-50 nM. Cells were first treated with JQ-1 for 1 hour followed by treatment with alvocidib for 2 hours.

MYC [5] = assay: MYC expression relative to HPRT in MV4-11 cells; format: cell-based; conditions: alvocidib single agent, two hours
Description: (§3) To determine the MYC and MCL-1 inhibitory activity of alvocidib, MV4-11 cells were treated with alvocidib for two hours and the expression of MYC and MCL-1 relative to HPRT was determined.

MCL-1 and c-MYC/N-MYC [6] = assay: Protein expression by western blotting in SK-N-AS cells; format: cell-based, human; conditions: 300 nM, time course
Description: (§4) A549 cells and SK-N-AS cells (human adrenal neuroblastoma cell line) were seeded and treated with alvocidib at concentrations of 100 nM and 300 nM respectively. Cells were collected at given times and total protein was extracted and detected using western blotting.

MCL-1 and c-MYC/N-MYC [7] = assay: Protein expression by western blotting in A549 cells; format: cell-based, human; conditions: 100 nM, time course
Description: as §4

MCL-1 [8] = assay: MCL-1 expression relative to HPRT in MV4-11 cells; format: cell-based; conditions: alvocidib single agent, two hours
Description: as §3

MCL-1 [9] = assay: MCL-1 mRNA expression in A549 cells, RT-qPCR; format: cell-based, human; conditions: 0-8 μM, 2 hours
Description: (§5) A549 cells were seeded and treated with alvocidib at concentrations ranging from 0-8 μM for 2 hours. Following the treatment of solid tumor cells, cells were harvested and mRNA was detected using RT-qPCR in the manner described in previous examples.

MYC [10] = assay: MYC mRNA expression in A549 cells, RT-qPCR; format: cell-based, human; conditions: 0-8 μM, 2 hours
Description: as §5

Which results are given for `Cc1sc2c(c1C)C(c1ccc(Cl)cc1)=N[C@@H](CC(=O)OC(C)(C)C)c1nnc(C)n1-2` [JQ-1]?
body weight [1]: comparable; expression of c-MYC normalized to HPRT1 and DMSO control (c-MYC): downregulated; IC50 (MV4-11; 20 nM alvocidib 48 h): 133 nM; IC50 (MV4-11; without alvocidib (DMSO 48 h)): 228 nM; IC50 (MOLM13; 20 nM alvocidib 48 h): 209 nM; IC50 (MOLM13; without alvocidib (DMSO 48 h)): 526 nM; fold lower IC50 on addition of 20 nM alvocidib (MOLM13; MOLM13 and MV4-11): 2 fold; effect on tumor volume (MV4-11 cells): no measurable activity

With `Cc1[nH]c2ccccc2c1CCNCc1ccc(/C=C/C(=O)NO)cc1` [Panobinostat, panobinostat] as the molecule, how does the IC50 (MV4-11; Homo sapiens, MV4-11, 48 h, 20 nM alvocidib 48 h) read?
The IC50 was 3 nM.

What about the IC50 (MV4-11; Homo sapiens, MV4-11, 48 h, without alvocidib (DMSO 48 h)) of the same molecule?
Its IC50 is 18 nM.

And the IC50 (MOLM13; Homo sapiens, MOLM-13, 48 h, 20 nM alvocidib 48 h)?
The IC50 was 5 nM.

What about the IC50 (MOLM13; Homo sapiens, MOLM-13, 48 h, without alvocidib (DMSO 48 h)) of the same molecule?
The IC50 was 16 nM.

For `CN1CC[C@H](c2c(O)cc(O)c3c(=O)cc(-c4ccccc4Cl)oc23)[C@H](O)C1` [alvocidib], which “MCL-1 mRNA expression” value (MCL-1 [2]; 30 minute time point) is on record?
The value was “repressed”.

What about the “MCL-1 mRNA expression” value (MCL-1 [2]; 1 hour post-dose) of the same molecule?
The value was “maximum repression”.

What about the “MCL-1 mRNA expression” value (MCL-1 [2]; 2 hour time point) of the same molecule?
Its value is “repression is reduced”.

What about the “MCL-1 mRNA expression” value (MCL-1 [2]; 3 hour time point) of the same molecule?
Its value is “no inhibition”.

And the CDK9/Hexim1 association (CDK9 and Hexim1; 500 nM dose, half hour time point)?
The CDK9/Hexim1 association was “increased CDK9/Hexim1 association”.

What about the “association of CDK9 and Hexim1” value (CDK9 and Hexim1; 1 mM alvocidib, time course) of the same molecule?
The value was “increases association of CDK9 and Hexim1 in a time dependent manner”.

And the “CDK9/Hexim1 association” value (CDK9 and Hexim1; 2 hr treatment, different doses)?
Its value is “dose dependent increase”.

What about the mRNA expression ([3]; 0.1 μM dose, 2 hour time point) of the same molecule?
The mRNA expression was “noticeably repressed”.

And the “expression of mRNA normalized to β-actin and control” value ([3]; 24 and 48 hour time points)?
The value was “downregulated the expression of mRNA completely”.

And the “mRNA expression relative to β-actin and vehicle control” value ([3]; doses of 1 μM up to 8 μM, 2 hours)?
Its value is “Complete repression”.

And the “MCL-1 mRNA expression” value (MCL-1 [4])?
The value was “represses MCL-1 mRNA expression”.

What about the MYC expression (MYC [5]) of the same molecule?
The MYC expression was “completely eliminates”.

And the “protein expression of MCL-1 and c-MYC/N-MYC” value (MCL-1 and c-MYC/N-MYC [6])?
The value was “represses protein expression”.

What about the body weight [1] of the same molecule?
The body weight was “comparable”.

What about the “expression of c-MYC normalized to HPRT1 and DMSO control” value (c-MYC) of the same molecule?
The value was “downregulated”.

What about the “protein expression of MCL-1 and c-MYC/N-MYC” value (MCL-1 and c-MYC/N-MYC [7]) of the same molecule?
The value was “represses protein expression”.

What about the “reduction of MCL-1 expression” value (MCL-1 [8]) of the same molecule?
Its value is 60%.

What about the “MCL-1 mRNA expression relative to HPRT1” value (MCL-1 [9]) of the same molecule?
The value was “represses MCL-1 mRNA expression in a dose dependent manner”.

What about the “MYC mRNA expression relative to HPRT1” value (MYC [10]) of the same molecule?
The value was “represses MYC mRNA expression in a dose dependent manner”.

What about the “tumor size relative to vehicle” value (MV4-11 cells; 2.5 mg/kg alvocidib i.p., throughout the study) of the same molecule?
The value was “approximately 50%”.

What about the “effect on tumor volume” value (MV4-11 cells) of the same molecule?
Its value is “moderate activity”.
